This assay has as its target T1, GAK (InCELL Pulse) (Homo sapiens, UniProt O14976).
T1 sequence (O14976 2-1311): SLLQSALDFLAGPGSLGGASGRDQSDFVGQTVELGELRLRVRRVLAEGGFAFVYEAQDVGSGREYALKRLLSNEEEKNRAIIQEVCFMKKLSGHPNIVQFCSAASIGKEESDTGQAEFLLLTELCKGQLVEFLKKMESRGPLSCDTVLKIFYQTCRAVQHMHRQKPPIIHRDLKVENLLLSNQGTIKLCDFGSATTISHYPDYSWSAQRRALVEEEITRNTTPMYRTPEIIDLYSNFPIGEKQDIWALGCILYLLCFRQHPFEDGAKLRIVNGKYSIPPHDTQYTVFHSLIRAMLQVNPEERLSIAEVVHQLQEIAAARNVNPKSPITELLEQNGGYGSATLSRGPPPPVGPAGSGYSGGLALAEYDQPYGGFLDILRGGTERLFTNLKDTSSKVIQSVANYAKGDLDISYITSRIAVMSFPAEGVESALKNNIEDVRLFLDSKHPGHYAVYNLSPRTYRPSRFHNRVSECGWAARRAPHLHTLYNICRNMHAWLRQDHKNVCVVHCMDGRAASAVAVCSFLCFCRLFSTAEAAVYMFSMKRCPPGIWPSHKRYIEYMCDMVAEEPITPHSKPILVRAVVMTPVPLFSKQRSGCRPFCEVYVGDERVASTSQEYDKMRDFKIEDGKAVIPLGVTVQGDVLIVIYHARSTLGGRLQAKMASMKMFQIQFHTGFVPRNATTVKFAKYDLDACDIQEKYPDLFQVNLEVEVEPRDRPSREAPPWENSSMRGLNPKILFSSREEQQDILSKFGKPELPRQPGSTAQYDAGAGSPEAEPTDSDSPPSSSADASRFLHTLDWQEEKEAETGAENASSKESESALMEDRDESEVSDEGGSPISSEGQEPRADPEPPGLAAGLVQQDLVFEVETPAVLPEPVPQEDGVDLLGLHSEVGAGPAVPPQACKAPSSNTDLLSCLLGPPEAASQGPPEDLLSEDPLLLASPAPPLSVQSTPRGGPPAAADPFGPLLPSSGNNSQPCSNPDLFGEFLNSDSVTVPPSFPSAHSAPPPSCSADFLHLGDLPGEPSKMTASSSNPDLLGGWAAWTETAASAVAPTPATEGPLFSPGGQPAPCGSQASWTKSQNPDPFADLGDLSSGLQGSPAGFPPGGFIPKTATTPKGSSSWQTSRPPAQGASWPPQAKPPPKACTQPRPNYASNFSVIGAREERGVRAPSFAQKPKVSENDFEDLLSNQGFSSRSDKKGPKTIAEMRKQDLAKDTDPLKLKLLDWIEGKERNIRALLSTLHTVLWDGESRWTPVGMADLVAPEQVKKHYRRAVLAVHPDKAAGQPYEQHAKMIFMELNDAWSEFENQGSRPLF
The experiment in a line: InCELL Pulse cellular target engagement. The settings on record: in cells. It counts as cell-based.

The term IC50 denotes the concentration at which inhibition is half-maximal. Lower therefore signals greater potency in that assay. As for `COc1cc2nccc(Nc3cc(OC)c(OC)c(OC)c3)c2cc1OC` [compound 15, 6,7-disubstituted methoxy (15)], the IC50 turned out to be 0.045 µM. Under `COc1cc(Nc2ncnc3ccc(C(F)(F)F)cc23)cc(OC)c1OC` [compound 19, quinazoline (19)] stands 6.7 µM.

For the origin of these results see publication doi:10.1101/471615v1 (biorxiv, 2018).
